Measured values published in PubChem BioAssay (NCI).
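In this assay, cells in 96-well plates receive the compound at five concentrations for 48 hours. Endpoints are linearly interpolated between the surrounding concentrations. Abbreviation: GI50, concentration required for 50% inhibition of growth. TGI denotes the concentration required for complete inhibition of growth.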

Legend:
Test in all cases: NCI-60 cell line screen, 48 h
CAKI-1 renal = system: CAKI-1 renal
SW-620 colon = system: SW-620 colon
DU-145 prostate = system: DU-145 prostate
MALME-3M melanoma = system: MALME-3M melanoma
MOLT-4 leukemia = system: MOLT-4 leukemia
HL-60(TB) leukemia = system: HL-60(TB) leukemia
SK-MEL-2 melanoma = system: SK-MEL-2 melanoma
OVCAR-3 ovarian = system: OVCAR-3 ovarian
K-562 leukemia = system: K-562 leukemia
M14 melanoma = system: M14 melanoma

SMILES	GI50 (CAKI-1 renal)	TGI (CAKI-1 renal)	GI50 (SW-620 colon)	TGI (SW-620 colon)	GI50 (DU-145 prostate)	TGI (DU-145 prostate)	GI50 (MALME-3M melanoma)	TGI (MALME-3M melanoma)	GI50 (MOLT-4 leukemia)	TGI (MOLT-4 leukemia)	GI50 (HL-60(TB) leukemia)	TGI (HL-60(TB) leukemia)	TGI (SK-MEL-2 melanoma)	TGI (OVCAR-3 ovarian)	TGI (K-562 leukemia)	TGI (M14 melanoma)	GI50 (SK-MEL-2 melanoma)	GI50 (OVCAR-3 ovarian)	GI50 (M14 melanoma)	GI50 (K-562 leukemia)
CC(CNc1nc(Nc2ccc(Cl)c(Cl)c2)nc(C(Cl)(Cl)Cl)n1)N(C)C (configuration not stated)	1.7 µM	3.59 µM	1.6 µM	2.95 µM	1.99 µM	4.09 µM	1.79 µM	3.79 µM	1720 nM	3.78 µM	1.69 µM	3.54 µM	–	–	–	–	–	–	–	–
C/C=C1/C(=O)O[C@]23C=C[C@@H]4C(C(=O)OC)=CO[C@H](O[C@@H]12)[C@@H]43	–	3.21 µM	–	–	–	–	–	5.61 µM	–	3.83 µM	–	3.06 µM	3.76 µM	3.95 µM	7.93 µM	–	–	–	–	–
Cc1ccc(C(=O)N/N=C(\N=Nc2ccccc2)c2ccc(N(CCC#N)CCC#N)cc2C)cc1	–	> 100 µM	–	> 100 µM	–	> 100 µM	–	–	–	> 100 µM	–	> 100 µM	> 100 µM	> 100 µM	> 100 µM	> 100 µM	–	–	–	–
O=C1NC(=O)C2(CCc3ccc(N(CCCl)CCCl)cc32)N1 (configuration not stated)	–	> 47.9 µM	–	61.9 µM	–	–	–	–	–	49.8 µM	–	9.75 µM	43.4 µM	41.4 µM	> 100 µM	–	–	–	–	–
CC(=O)Nc1nc(C)c(-c2cc3c(c(S(C)(=O)=O)c2)C(=O)N([C@@H](C)C2CC2)C3)s1	17.6 µM	55.4 µM	54.5 µM	> 100 µM	29.5 µM	> 100 µM	23.6 µM	> 100 µM	29300 nM	> 100 µM	17.5 µM	> 100 µM	67.7 µM	> 100 µM	> 100 µM	> 100 µM	21.9 µM	30.9 µM	28 µM	34.2 µM
COc1ccc(/C=C/C(=O)/C=C(/C=C/c2ccc(OC)c(OC)c2OC)OB(F)F)c(OC)c1OC	–	–	0.58 µM	4.34 µM	3.13 µM	> 100 µM	3.02 µM	62.4 µM	425 nM	4.74 µM	0.469 µM	3.96 µM	8.09 µM	–	> 100 µM	> 100 µM	2.36 µM	–	2.74 µM	1.28 µM
COc1ccc(-c2c(C#N)cnc(N)c2-c2nc3cc(C)c(C)cc3[nH]2)cc1	14.6 µM	> 100 µM	6.76 µM	> 100 µM	6.92 µM	23.8 µM	6 µM	48.3 µM	> 100000 nM	> 100 µM	83.6 µM	> 100 µM	98 µM	30.4 µM	> 100 µM	> 100 µM	10.8 µM	14.8 µM	6.61 µM	6.03 µM
CC1CC(c2ccc([N+](=O)[O-])cc2)=Nc2ccccc2S1=O (configuration not stated)	–	61.2 µM	–	29.3 µM	–	–	–	–	–	> 100 µM	–	50.5 µM	> 100 µM	–	75 µM	35 µM	–	–	–	–
CC(=O)O[C@@H]1CN(S(=O)(=O)c2ccc(C)cc2)C[C@@H]1C1CCCCC1	–	45.6 µM	–	41.3 µM	–	> 100 µM	–	–	–	65.3 µM	–	–	32.2 µM	28.2 µM	> 100 µM	29.3 µM	–	–	–	–
COc1ccc2oc3c(ccc[n+]3C)c(=O)c2c1	–	> 100 µM	–	> 100 µM	–	> 100 µM	–	> 100 µM	–	–	–	> 100 µM	> 100 µM	> 100 µM	> 100 µM	> 100 µM	–	–	–	–
COc1cc2c(cc1O)N=C[C@@H]1CCC(O)N1C2=O (mixture of isomers)	–	11.7 µM	–	6.96 µM	–	–	–	1.42 µM	–	2.69 µM	–	11.1 µM	0.748 µM	1.49 µM	24.2 µM	–	–	–	–	–
CCc1ncc(C(C)(O)c2ccccc2)n1Cc1ccccc1 (configuration not stated)	–	> 100 µM	–	> 100 µM	–	> 100 µM	–	> 100 µM	–	65.1 µM	–	–	> 100 µM	> 100 µM	> 100 µM	13 µM	–	–	–	–
